Measurements as given in US20030113321A1, “Novel G-protein-coupled receptor protein and its DNA” (priority 2000, published 2003).

Columns and labels:
Format in all cases: cell-based
TGR4 [1] = target: T1, TGR4 (Homo sapiens, UniProt Q9H1C0); test: Intracellular cAMP production amount in TGR4-expressed CHO cells; design: expressed in transfected cells; host or cells: CHO cells stably expressing TGR4 (CHO-TGR4); details: 2 μM; CHO-TGR4 compared with CHO-mock cells; 30 minutes at 37° C.; n is 3; FIGS. 7 and 8
T1 sequence (Q9H1C0 whole entry): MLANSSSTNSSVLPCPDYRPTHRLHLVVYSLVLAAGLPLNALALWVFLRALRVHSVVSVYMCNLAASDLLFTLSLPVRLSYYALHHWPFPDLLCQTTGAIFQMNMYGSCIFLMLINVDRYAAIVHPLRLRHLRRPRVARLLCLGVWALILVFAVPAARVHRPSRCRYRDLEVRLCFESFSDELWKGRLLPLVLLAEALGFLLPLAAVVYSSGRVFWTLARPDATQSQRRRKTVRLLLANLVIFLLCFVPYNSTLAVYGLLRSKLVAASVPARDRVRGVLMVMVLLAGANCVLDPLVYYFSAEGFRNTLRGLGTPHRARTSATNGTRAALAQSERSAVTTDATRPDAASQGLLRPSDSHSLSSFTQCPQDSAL
Protocol: CHO-mock cells with neither CHO-TGR4 nor receptor gene introduced, which were prepared in EXAMPLE 4, were plated in a 96-well plate (Beckton-Dickinson, Inc.) in 25,000 cells/well, followed by incubation overnight at 37° C. under 5% CO2. This culture solution was used for assay. A sample buffer used was HBSS supplemented with 0.1% BSA and 0.2 mM I BMX (Sigma, Inc.). The cells were washed twice with the sample buffer and pre-incubated at 37° C. for 30 minutes. The cells were further washed twice and the sample was added thereto followed by incubation at 37° C. for 30 minutes. The sample was added in 2 μM of farnesyl diphosphate or lysophosphatidic acid. After incubation in the presence of the sample, the amount of intracellular cAMP production was assayed by using cAMP Screen System (ABI).

TGR4 [2] = target: T1, TGR4; test: Reporter gene (CRE-luciferase) expression level in cells with transient TGR4 expression; design: expressed in transfected cells; host or cells: CHO-mock cells (CHO(dhfr-) transformed with pAKKO-111H), transiently transfected with pAK-TGR4, pAK-Gi and pCRE-Luc; details: TGR4 gene-transfected CHO-mock cells (co-transfected with pAK-Gi and pCRE-Luc), 4 hours, FIG. 4
Text: TGR4 cDNA or inhibitory G protein α subunit Gi cDNA was inserted into the animal cell expression vector plasmid pAKKO-111H (the plasmid vector identical to the pAKKO-1.11H described in Biochim. Biophys. Acta, Hinuma, S., et al., 1219, 251-259, 1994) by publicly known methods. The expression vector plasmids pAK-TGR4 and pAK-Gi thus produced and pAKKO-111H without any particular gene inserted were transfected to CHO cells by the following procedures.
First, using these vectors, Escherichia coli JM109 was transformed; after the colony obtained was isolated and incubated, a plasmid was prepared using QIAGEN Plasmid Maxi Kit (Qiagen, Inc.). […]
Geranylgeranyl diphosphate (GGPP, Sigma, Inc.), farnesyl diphosphate (FPP, Sigma, Inc.) and lysophosphatidic acid (LPA, Sigma, Inc.) were diluted in the assay buffer, respectively, and each dilution was added to the transfected CHO-mock cells described above in a concentration of 1, 0.1 and 0.01 μM, followed by incubation at 37° C. for 4 hours under 5% CO2. The culture supernatant was discarded and 50 μl of a substrate for assaying an luciferase activity or PicaGene LT 2.0 (Toyo Ink Mfg. Co., Ltd.) was added, and the luminescence amount of luciferase was assayed by using a plate reader (ARVO sx multi-label counter, Walac, Inc.).

TGR4 [3] = target: T1, TGR4; test: Intracellular calcium ion mobilization activity in TGR4-expressed CHO cells (FLIPR); design: expressed in transfected cells; host or cells: CHO cells stably expressing TGR4 (CHO-TGR4); details: 2.5 μM; CHO-TGR4 compared with CHO-mock cells; about 3 minutes after addition; FIGS. 5 and 6
Protocol: Using the plasmids for TGR4 expression prepared in EXAMPLE 3, CHO-TGR4 as CHO cells for stable TGR4 expression was prepared by a publicly known method. CHO-mock cells with neither CHO-TGR4 nor receptor gene introduced were plated in a 96-well black plate (Costar, Inc.) with the clear bottom in a concentration of 3000 cells/well, and cultured overnight at 37° C. under 5% CO2. The culture solution was used for assay. A wash buffer was prepared by adding 20 mM HEPES, pH 7.4 and 2.5 mM probenecid (Sigma, Inc.) to Hank's balanced salt solution (HBSS, Gibco BRL, Inc.). As a sample buffer, the wash buffer supplemented with 0.1% bovine serum albumin (BSA, Sigma, Inc.) was used. As a dye loading solution there was used a mixture prepared by adding 1% FBS, 4 μM Fluo 3-AM (Wako Pure Chemical Industry Co., Ltd.) and 0.04% Pluronic acid (Molecular Probes, Inc.) to the wash buffer. The medium of the cells was discarded and the dye loading solution was added. After incubation at 37° C. for an hour, the cells were washed with the wash buffer using a plate washer. The cells were set on Fluorometric Imaging Plate Reader (FLIPR, Molecular Devices, Inc.) and a change of the intracellular calcium ion level was measured for about 3 minutes after addition of the sample. As the sample, FPP or LPA was added in a concentration of 2.5 μM.

amount of intracellular cAMP production (TGR4 [1])	luciferase activity (TGR4 [2]; 1 μM)	intracellular calcium ion mobilization activity (TGR4 [3])	Compound	luciferase activity (TGR4 [2]; 1 and 0.1 μM)
increased specifically to CHO-TRG4	increased luciferase activity	increased specifically to CHO-TRG4	lysophosphatidic acid [LPA]	–
–	–	–	CC(C)=CCC/C(C)=C/CC/C(C)=C/CC/C(C)=C/COP(=O)(O)OP(=O)(O)O [GGPP, Geranylgeranyl diphosphate]	increased luciferase activity
